US8440794B2, “Peptide sequences, their branched form and use thereof for antimicrobial applications” (Universita' Degli Studi di Siena, priority 2008, dated 2013)
In brackets after ≈: the same amount, converted by molar mass. Where two headings read alike, the source gives them in different places. Where a SMILES comes first, the peptide text is derived from it. Bridges are numbered along the chain shown (N, C = ends). Roman numbers before positions name the chains, in order. Where no end group is shown, it is not given here. [ ]: non-standard residue; d: D form. βAla = NCCC(=O)O

Assays:
P. aeruginosa AV65 = assay type: cell-based, Pseudomonas aeruginosa
Method: (§1) M33, […], M35 and M36 MICs were determined against strains of several bacterial species, including Gram-negative pathogens and also Staphylococcus aureus (Table 1). MICs in the micromolar range were observed against several Gram-negatives including Pseudomonas aeruginosa, Acinetobacter baumannii and most Enterobacteriaceae, with the exception of Proteus mirabilis, Serratia marcescens and Burkholderia cepacia. Activity of peptides was retained against MDR strains with various resistance mechanisms (such as extended-spectrum beta-lactamases and carbapenemases), including MDR P. aeruginosa strains from CF patients. Antimicrobial profile of M33, […] and potency were overall similar to those of polymyxin B, although M33, M34, M35 and M36 also appeared to have some activity against S. aureus (Table 1).

P. aeruginosa EF-OBG6-1 = assay type: cell-based, Pseudomonas aeruginosa
Method: as §1

P. aeruginosa PAO-1 = assay type: cell-based, Pseudomonas aeruginosa
Method: as §1

[1] = tested on: P. aeruginosa SC-BGr12-02; assay type: cell-based, Pseudomonas aeruginosa
Method: as §1

[2] = tested on: P. aeruginosa SC-CNm03-07; assay type: cell-based, Pseudomonas aeruginosa
Method: as §1

[3] = tested on: P. aeruginosa SC-DMr05-04; assay type: cell-based, Pseudomonas aeruginosa
Method: as §1

[4] = tested on: P. aeruginosa SC-GMm03-05; assay type: cell-based, Pseudomonas aeruginosa
Method: as §1

[5] = tested on: P. aeruginosa SC-MDm03-02; assay type: cell-based, Pseudomonas aeruginosa
Method: as §1

[6] = tested on: P. aeruginosa SC-MDr03-06; assay type: cell-based, Pseudomonas aeruginosa
Method: as §1

[7] = tested on: P. aeruginosa SC-VMr04-05; assay type: cell-based, Pseudomonas aeruginosa
Method: as §1

P. aeruginosa VR-143/97 = assay type: cell-based, Pseudomonas aeruginosa
Method: as §1

[8] = tested on: Acinetobacter baumannii RUH 134; assay type: cell-based
Method: as §1

[9] = tested on: Burkholderia cepacia ORB-99; assay type: cell-based
Method: as §1

[10] = tested on: Enterobacer aerogenes W03BG0067; assay type: cell-based
Method: as §1

[11] = tested on: Enterobacter cloacae W03AN0041; assay type: cell-based
Method: as §1

[12] = tested on: Escherichia coli ATCC 25922; assay type: cell-based
Method: as §1

[13] = tested on: Klebsiella pneumoniae ATCC 13833; assay type: cell-based
Method: as §1

[14] = tested on: Proteus mirabilis W03VA1017; assay type: cell-based
Method: as §1

[15] = tested on: Pseudomonas aeruginosa ATCC 27853; assay type: cell-based
Method: as §1

[16] = tested on: Serratia marcescens W03BG0003; assay type: cell-based
Method: as §1

[17] = tested on: Staphylococcus aureus ATCC 29213; assay type: cell-based
Method: as §1

K pneumoniae 7086042 = assay type: cell-based, Klebsiella pneumoniae
Method: as §1

K pneumoniae C8-27 = assay type: cell-based, Klebsiella pneumoniae
Method: as §1

K pneumoniae FIPP-1 = assay type: cell-based, Klebsiella pneumoniae
Method: as §1

E. coli W03BG0025 = assay type: cell-based, Escherichia coli
Method: as §1

A. baumannii MR157 = assay type: cell-based, Acinetobacter baumannii
Method: as §1

A. baumannii RUH 875 = assay type: cell-based, Acinetobacter baumannii
Method: as §1

S. aureus 3851 = assay type: cell-based, Staphylococcus aureus
Method: as §1

human erythrocytes = assay type: cell-based
Method: FIG. 2. Percentage of haemolysis provoked by tetra-branched M33 peptide incubated 3 or 24 hours with human red blood cells.
Haemolysis of fresh human erythrocytes was determined using the method of Parpart, summarized as follows. A calibration curve was constructed by suspending fresh human erythrocytes in phosphate buffer (pH 7.4, 110 mM sodium phosphate) with various concentrations of NaCl and incubated for 30 min at room temperature. Samples were centrifuged at 500×g for 5 minutes, and haemoglobin release was monitored by measuring the absorbance of supernatants at 540 nm. The absorbance obtained with 0.1% NaCl corresponded to 100% lysis and that with 1% NaCl, to 0% lysis. Peptides dissolved in PBS were added to human erythrocyte solution at several concentrations. The resulting suspension was incubated separately at 37° C. for 2 h and 24 h. Release of hemoglobin was monitored by measuring the absorbance of the suspernatant at 540 nm after centrifuging and haemolysis percentage was calculated using the calibration curve.

E. coli TG1 = test: Antibacterial activity against E. coli TG1 cells (CFU count after 75 min incubation, FIG. 1A); assay type: cell-based; settings: 75 minutes at 37° C., CFU counted
Description: FIG. 1. A, Antibacterial activity against E. coli TG1 cells. Comparison of the following tetra-branched peptides: M6 batch 1 synthesis (triangles), M6 batch 2 synthesis (squares), M6 batch 3 synthesis (white circles), which contain a mixture of Gln and pyroGlu (in unknown percentages) as first amino-acid, […] (asterisks), where the first amino-acid is 100% pyroGlu, and M33 (black circles), in which the first Gln was deleted. […] SD derived by means of three different experiments. Many different syntheses of M33 (and also of M34, M35 and M36, here not shown) gave perfectly overlapping results without any wavering outcome. B, Mass spectrometry analysis of tetra-branched peptide M6 crude mixture. Calculated molecular mass of M6 was 5195 Da. Two main peaks are present, one at 5197 Da corresponding to unmodified M6 and one at 5179 Da that corresponds to the secondary product with one pyroGlu in first position in the place of one of the four Gln. C, Mass spectrometry analysis of tetrabranched peptide M33 after 24 hours of incubation in serum. The peptide appears as a single peak at the expected molecular mass (4683 Da).
A single colony of E. coli TG1 strain was cultured in 2×TY medium to 0.2 OD^600. […] The following day colonies (CFU/ml) grown on plates were counted.

Molecule: CC[C@H](C)[C@H](NC(=O)[C@H](CCCNC(=N)N)NC(=O)[C@@H](N)CCCCN)C(=O)N[C@@H](CCCNC(=N)N)C(=O)N[C@H](C(=O)N[C@@H](CCCNC(=N)N)C(=O)N[C@@H](CC(C)C)C(=O)N[C@@H](CO)C(=O)N[C@@H](C)C(=O)NCCCC[C@H](NC(=O)[C@H](C)NC(=O)[C@H](CO)NC(=O)[C@H](CC(C)C)NC(=O)[C@H](CCCNC(=N)N)NC(=O)[C@@H](NC(=O)[C@H](CCCNC(=N)N)NC(=O)[C@@H](NC(=O)[C@H](CCCNC(=N)N)NC(=O)[C@@H](N)CCCCN)[C@@H](C)CC)C(C)C)C(=O)NCCCC[C@H](NC(=O)[C@H](CCCCNC(=O)[C@H](C)NC(=O)[C@H](CO)NC(=O)[C@H](CC(C)C)NC(=O)[C@H](CCCNC(=N)N)NC(=O)[C@@H](NC(=O)[C@H](CCCNC(=N)N)NC(=O)[C@@H](NC(=O)[C@H](CCCNC(=N)N)NC(=O)[C@@H](N)CCCCN)[C@@H](C)CC)C(C)C)NC(=O)[C@H](C)NC(=O)[C@H](CO)NC(=O)[C@H](CC(C)C)NC(=O)[C@H](CCCNC(=N)N)NC(=O)[C@@H](NC(=O)[C@H](CCCNC(=N)N)NC(=O)[C@@H](NC(=O)[C@H](CCCNC(=N)N)NC(=O)[C@@H](N)CCCCN)[C@@H](C)CC)C(C)C)C(=O)NCCC(=O)O)C(C)C [M35, KRIRVRLSA] (I: H-KRIRVRLSAKK[βAla]-OH / II: H-KRIRVRLSAK / III: H-KRIRVRLSA / IV: H-KRIRVRLSA; amide I:10-IV:C, I:11-II:C, II:10-III:C; N-terminus assumed)
- MIC (P. aeruginosa AV65; AV65, 24 h): 1.5 µM (≈ 7.19 µg/mL)
- MIC (P. aeruginosa EF-OBG6-1; EF-OBG6-1, 24 h): 1.5 µM (≈ 7.19 µg/mL)
- MIC (P. aeruginosa PAO-1; PAO-1, 24 h): 1.5 µM (≈ 7.19 µg/mL)
- MIC ([1]; SC-BGr12-02, 24 h): 1.5 µM (≈ 7.19 µg/mL)
- MIC ([2]; SC-CNm03-07, 24 h): 1.5 µM (≈ 7.19 µg/mL)
- MIC ([3]; SC-DMr05-04, 24 h): 1.5 µM (≈ 7.19 µg/mL)
- MIC ([4]; SC-GMm03-05, 24 h): 1.5 µM (≈ 7.19 µg/mL)
- MIC ([5]; SC-MDm03-02, 24 h): 3 µM (≈ 14.4 µg/mL)
- MIC ([6]; SC-MDr03-06, 24 h): 3 µM (≈ 14.4 µg/mL)
- MIC ([7]; SC-VMr04-05, 24 h): 3 µM (≈ 14.4 µg/mL)
- MIC (P. aeruginosa VR-143/97; VR-143/97, 24 h): 1.5 µM (≈ 7.19 µg/mL)
- MIC ([8]; RUH 134, 24 h): 1.5 µM (≈ 7.19 µg/mL)
- MIC ([9]; 24 h): >24 µM
- MIC ([10]; 24 h): 1.5 µM (≈ 7.19 µg/mL)
- MIC ([11]; W03AN0041, 24 h): 1.5 µM (≈ 7.19 µg/mL)
- MIC ([12]; ATCC 25922, 24 h): 1.5 µM (≈ 7.19 µg/mL)
- MIC ([13]; ATCC 13833, 24 h): 3 µM (≈ 14.4 µg/mL)
- MIC ([14]; W03VA1017, 24 h): >24 µM
- MIC ([15]; ATCC 27853, 24 h): 1.5 µM (≈ 7.19 µg/mL)
- MIC ([16]; W03BG0003, 24 h): >24 µM
- MIC ([17]; ATCC 29213, 24 h): 6 µM (≈ 28.8 µg/mL)
- MIC (K pneumoniae 7086042; 7086042, 24 h): 3 µM (≈ 14.4 µg/mL)
- MIC (K pneumoniae C8-27; C8-27, 24 h): 1.5 µM (≈ 7.19 µg/mL)
- MIC (K pneumoniae FIPP-1; FIPP-1, 24 h): 3 µM (≈ 14.4 µg/mL)
- MIC (E. coli W03BG0025; W03BG0025, 24 h): 1.5 µM (≈ 7.19 µg/mL)
- MIC (A. baumannii MR157; MR157, 24 h): 3 µM (≈ 14.4 µg/mL)
- MIC (A. baumannii RUH 875; RUH 875, 24 h): 3 µM (≈ 14.4 µg/mL)
- MIC (S. aureus 3851; 3851, 24 h): 6 µM (≈ 28.8 µg/mL)
- Haemolysis of human red blood cells (human erythrocytes): practically negligible haemolysis grade

Molecule: Polymyxin B [reference compound]
- MIC (P. aeruginosa AV65; P. aeruginosa AV65, FQr AGr ESCr NEMr (MBL/IMP-13)): 1.5 µM
- MIC (P. aeruginosa EF-OBG6-1; P. aeruginosa EF-OBG6-1, CF clinical isolate, FQr AGr ESCr NEMr (MBL/IMP-13)): 0.7 µM
- MIC (P. aeruginosa PAO-1; P. aeruginosa PAO-1, reference strain, wild type): 1.5 µM
- MIC ([1]; P. aeruginosa SC-BGr12-02, CF clinical isolate, FQr AGr ESCr NEMr): 1.5 µM
- MIC ([2]; P. aeruginosa SC-CNm03-07, CF clinical isolate, mucoid, FQr AGr ESCr NEMr): 0.7 µM
- MIC ([3]; P. aeruginosa SC-DMr05-04, CF clinical isolate, FQr AGr ESCr NEMr): 1.5 µM
- MIC ([4]; P. aeruginosa SC-GMm03-05, CF clinical isolate, mucoid, FQr AGr ESCr NEMr): 1.5 µM
- MIC ([5]; P. aeruginosa SC-MDm03-02, CF clinical isolate, mucoid, FQr AGr ESCr NEMr): 1.5 µM
- MIC ([6]; P. aeruginosa SC-MDr03-06, CF clinical isolate, FQr AGr ESCr NEMr): 1.5 µM
- MIC ([7]; P. aeruginosa SC-VMr04-05, CF clinical isolate, FQr AGr ESCr NEMr): 1.5 µM
- MIC (P. aeruginosa VR-143/97; P. aeruginosa VR-143/97, FQr AGr ESCr NEMr (MBL/VIM-1)): 1.5 µM
- MIC ([8]; Acinetobacter baumannii RUH 134, reference strain, European clone II): 1.5 µM
- MIC ([9]; Burkholderia cepacia ORB-99, CF clinical isolate, wild type): >96 µM
- MIC ([10]; Enterobacer aerogenes W03BG0067, AGr ESCr (ESBL/SHV-5)): 0.7 µM
- MIC ([11]; Enterobacter cloacae W03AN0041, ESCr (ESBL/SHV-12)): 0.7 µM
- MIC ([12]; Escherichia coli ATCC 25922, reference strain, wild type): 0.7 µM
- MIC ([13]; Klebsiella pneumoniae ATCC 13833, reference strain, wild type): 0.7 µM
- MIC ([14]; Proteus mirabilis W03VA1017, FQr ESCr (AmpC/CMY-16)): >96 µM
- MIC ([15]; Pseudomonas aeruginosa ATCC 27853, reference strain, wild type): 1.5 µM
- MIC ([16]; Serratia marcescens W03BG0003, FQr AGr ESCr (ESBL/SHV-12)): >96 µM
- MIC ([17]; Staphylococcus aureus ATCC 29213, reference strain, PENr): 96 µM
- MIC (K pneumoniae 7086042; K pneumoniae 7086042, FQr AGr ESCr NEMr (MBL/VIM-1)): 1.5 µM
- MIC (K pneumoniae C8-27; K pneumoniae C8-27, FQr AGr ESCr ETPr (ESBL/CTX-M-15)): 0.7 µM
- MIC (K pneumoniae FIPP-1; K pneumoniae FIPP-1, FQr AGr ESCr NEMr (MBL/KPC-3)): 1.5 µM
- MIC (E. coli W03BG0025; E. coli W03BG0025, FQr AGr ESCr (ESBL/CTX-M-15)): 0.7 µM
- MIC (A. baumannii MR157; A. baumannii MR157, FQr AGr ESCr NEMr (OXA/OXA-58)): 1.5 µM
- MIC (A. baumannii RUH 875; A. baumannii RUH 875, reference strain, European clone I): 1.5 µM
- MIC (S. aureus 3851; S. aureus 3851, MR VANi): 96 µM

Molecule: QKKIRVRLSA (also: tetra-branched MAP) [M6, previously reported tetra-branched MAP peptide with Gln as first amino-terminal residue, reference compound]
- Antibacterial activity against E. coli TG1 cells (comparison of tetra-branched peptides, FIG. 1A) (E. coli TG1): intermediate antimicrobial activities
